The nature of assay [1]: Cytotoxicity against human HMC1 cells assessed as cell viability. The format is cell-based.
Another assay has as its system HMC1. In words: Inhibition of A23187-induced IL-6 production in human HMC1 cells incubated for 30 mins prior to A23187 challenge measured after 24 hrs by ELISA. The format is functional, cell-based. Background: In an ELISA, binding on a coated surface is turned into a signal by an enzyme label.

The term IC50 denotes the point on the concentration scale where inhibition reaches its midpoint. For the molecule `CC(C)=CCc1cc(C2CC(=O)c3ccc(O)c(CC=C(C)C)c3O2)c(O)cc1O` (stereo not drawn), the IC50 in assay [1] is above 20 µM; in the assay with HMC1 it was 1.62 µM.

With `COc1ccc(-c2cc3ccc(O)cc3o2)c(O)c1`, the IC50 in assay [1] is above 20 µM; with HMC1 it was 4.02 µM.

As for `CC(C)=CCc1cc([C@@H]2CC(=O)c3ccc(O)c(CC=C(C)C)c3O2)ccc1O` [GLABROL], the IC50 in assay [1] is above 20 µM; in the assay on HMC1, 0.73 µM.

Regarding `Oc1ccc2c(c1)OC[C@H]1c3cc4c(cc3O[C@@H]21)OCO4` [MAACKIAIN], the IC50 in assay [1] was above 20 µM; with HMC1, 3.01 µM.

The values above are taken from ChEMBL document CHEMBL3351288, “Flavonoids and arylbenzofurans from the rhizomes and roots of Sophora tonkinensis with IL-6 production inhibitory activity” (Bioorg Med Chem Lett, 2014).
